Tested on: Chung model of neuropathic pain
Assay: Antiallodynic activity in the Chung model (spinal nerve ligation), manually applied von Frey probes
Format: in vivo, Sprague-Dawley rats
Conditions: for % Maximum Possible Effect: 30 min after oral dosing (time of peak effect), L5 spinal nerve ligated rats, paw withdrawal threshold
Source text: The procedure used to test the antiallodynic activity of an enantiomer of Formula (I) substantially free of other enantiomers was the procedure for the measurement of allodynia found in the Chung Model (Kim S. H. and Chung J. M., An Experimental Model for Peripheral Neuropathy Produced by Segmental Spinal Nerve Ligation in the Rat, Pain, 1992, 50, 355-363).
Evaluation of Antiallodynic Activity (Manually Applied Von Frey Probes) Animals
Pathogen-free, male albino Sprague-Dawley rats, 200 g, were purchased from Harlan Industries (Indianapolis, Ind.) and maintained on a 12-h light/dark cycle (lights on at 06:00 h) in a climate-controlled room with food and water available ad libitum up to the time of the testing and food withdrawn 18 hr prior to testing.
Surgical Procedure and Measurement of Allodynia
The rats were anesthetized with isoflurane inhalant anesthesia. The left lumbar spinal nerve at the level of L5 was tightly ligated (4-0 silk suture) distal to the dorsal root ganglion and prior to entrance into the sciatic nerve, as described by Kim and Chung. The incisions were closed and the rats were allowed to recover under conditions described above. This procedure results in mechanical allodynia in the left hind paw. The sham operation, when performed, consisted of a similar surgical procedure lacking only the final ligation of the spinal nerve. Mechanical (tactile) allodynia was assessed by recording the pressure at which the affected paw (ipsilateral to the site of nerve injury) was withdrawn from graded stimuli (von Frey filaments ranging from 4.0 to 148.1 mN) applied by hand perpendicularly to the plantar surface of the paw (between the footpads) through wire-mesh observation cages. A paw withdrawal threshold (PWT) was determined by sequentially increasing and decreasing the stimulus strength and analyzing withdrawal data using a Dixon non-parametric test, as described by Chaplan et al (Chaplan S. R., Bach F. W., Pogrel J. W., Chung J. M. and Yaksh T. L., Quantitative Assessment of Tactile Allodynia in the Rat Paw, J Neurosci Meth, 1994, 53, 55-63). […]

NC(=O)OC[C@H](O)c1ccccc1Cl [Formula (Ib)]
% Maximum Possible Effect (30 mg/kg po): 11% | % Maximum Possible Effect (100 mg/kg po): 28% | time of peak antiallodynic effect (after oral dosing, 30 and 100 mg/kg): 30 min

Source: patent US20060293383A1, “Carbamate compounds for use in preventing or treating neuropathic pain and cluster and migraine headache-associated pain” (priority 2001, published 2006)
